One test relates to Strain 5150. As to the kind of experiment: Inhibition of proliferation of multi-resistant field isolates, asynchronous asexual stages, SYBR-green assay. In kind it is cell-based, P. falciparum. The settings on record: Plasmodium falciparum, read-out: IC50 nM Strain 5150 mean*. Here is the method: (§1) Compounds 63 and 84 were evaluated regarding the inhibition of the proliferation of multi-resistant field isolates adapted to culture. A panel of four Cambodian strains bearing different molecular markers of resistance were selected: 3D7: Laboratory strain, drug-sensitive, 5150: Cambodian isolate resistant to Chloroquine and Pyrimethamine, 6591: Cambodian isolate resistant to Chloroquine, Pyrimethamine, 5248: Cambodian isolate resistant to Chloroquine, Pyrimethamine, Mefloquine and Artemisinin, 6320: Cambodian isolate resistant to Chloroquine, Pyrimethamine, Piperaquine and Artemisinin.
(§2) IC50 were obtained against asynchronous asexual stages using SYBR-green assay after 72h of incubation with a serial dilution of the compounds. Data represents the mean and SD of 3 independent experiments ran in triplicates. Table 2 illustrates mean IC50 values and their standard deviation in nanomolar.

The next test relates to Strain 5248. The test is described as above. The test is classed as cell-based, P. falciparum. The settings on record: Plasmodium falciparum, read-out: IC50 nM Strain 5248 mean*. Here is the method: as §1, §2
A further test concerns Strain 6320. The test is described as above. In kind it is cell-based, P. falciparum. The settings on record: Plasmodium falciparum, read-out: IC50 nM Strain 6320 mean*. As to the method:
as §1, §2

In another test the test system is Strain 6591. Described as above. In kind it is cell-based, P. falciparum. Conditions: Plasmodium falciparum, read-out: IC50 nM Strain 6591 mean*. As to the method:
as §1, §2

Another test deals with Lab. Strain 3D7. As to the kind of experiment: Inhibition of proliferation, asynchronous asexual stages, SYBR-green assay, laboratory strain. The settings on record: Plasmodium falciparum, read-out: IC50 nM Lab. Strain 3D7 mean*. In kind it is cell-based, P. falciparum. Here is the method: as §1, §2
The subject of test [1] is P. falciparum NF54 (drug-sensitive line). As to the kind of experiment: Inhibition of proliferation of asynchronous asexual cultures (SYBR Green I based assay, 72h). The settings on record: for activity at 5 µM: first screen at 5µM in duplicate, 72h, NF54, read-out: % survival @5uM. The test is classed as cell-based. As to the method:
Compounds were provided at a concentration of 10 mM in DMSO.
P. falciparum parasite are cultured using standard protocol (Trager and Jensen, Science 1976, 193(4254), 673-675). Briefly, parasites are cultured at 4% hematocrit (O+ human blood, Etablissement Français du Sang, France) in RPMI1640 complemented with 0.1% Albumax I, HEPES buffer, hypoxanthine, and gentamycin. They are incubated at 37°C under an atmosphere of 5% CO2 and 5% O2.
Compounds of the invention were assayed for a first screen at 5µM in duplicate against asynchronous asexual cultures of P. falciparum NF54 (drug-sensitive line) containing mostly rings (2% hematocrit. 0.5% starting parasitemia). Plates were incubated for 72h at 37°C under a reduced oxygen atmosphere. Parasite growth was assessed using the SYBR Green I based assay.
IC50 were determined using Graphpad Prism 6 software. Dihydroartemisinin (starting concentration 50nM) and DMSO were used as positive and negative controls.

For a further test, the system named is Parasites. As to the kind of experiment: Parasite reduction rate (time needed to kill the parasites). The test is classed as cell-based. The settings on record: survival curves, duration of treatment versus log viable parasites, Figure 3. Here is the method:
Parasites are incubated (see for example Sanz et al. PLoS ONE 7, e30949 (2012)) with a compound of the invention (or a reference) for different time-windows, washed, and diluted serially in 96-well plates in fresh red blood cells. Parasites are kept in culture for 3 to 4 weeks, when growth is assessed to evaluate the number of parasites that survive-correlated to the number of wells where growth is found. Survival curves are obtained by plotting the duration of treatment versus the log of the number of viable parasites (figure 3).

The subject of a further test is asexual NF54 parasites. As to the kind of experiment: Stage-specificity during the asexual cell cycle (6h treatment windows, Giemsa smears). The test is classed as cell-based, P. falciparum. As to the method: To assess stage specificity of compounds of the invention, asexual NF54 parasites were tightly synchronized (0 to 3h post-invasion) using gelatin flotation and 5% D-sorbitol-treatment 3h later. […] Following the 6h-treatment, the corresponding cells were pelleted, washed with 10ml RPMI, and put back into culture in 500uL of complete media in a new plate. Parasitemia was assessed at 72 hours post-synchronization using giemsa-stained thin blood smears. Percentage of survival was calculated in comparison to a DMSO-treated control. The data were obtained in three independent experiments.

Test [2] concerns artemisinin-resistant parasites (strains 5150, 6591, 5248 and 6320). As to the kind of experiment: Ring-stage Survival Assay (RSA). The test is classed as cell-based, P. falciparum. Conditions: 0-3h rings. As to the method:
Since compounds of the invention are active on early ring stage as shown by the experiments on the cell cycle, their ability to kill artemisinin-resistant parasites in the ring-stage survival assay was tested (strains 5150, 6591, 5248 and 6320, Figure 2).
0-3h synchronized ring-stage parasites were exposed to a treatment of 6h with either DMSO, 700nM dihydroartemisinin (DHA), three times the IC50 value of the compound to test or 700nM DHA in combination with three times the IC50 value of the compound to test. Parasitemia was assessed at 72 hours post-synchronization using giemsa-stained thin blood smears. Percentage of survival was calculated in comparison to a DMSO-treated control. The data were obtained in three independent experiments.

Test [3] concerns P. berghei ANKA strain GFP-expressing parasites. As to the kind of experiment: In vivo activity, Peters 4-day suppressive test. The settings on record: C57BL/6 mice, 10mg/kg i.p. daily for four days. As to the method:
In vivo activity was determined as previously described (Malmquist et al. Antimicrob. Agents Chemother. 2015, 59 (2), 950-959) following the Peters 4-day suppressive test (Peters, Ann. Trop. Med. Parasitol. 1975, 69 (2), 155-171), with slight modifications. C57BL/6 mice were infected intraperitoneally (i.p.) with 10^5 P. berghei ANKA strain GFP-expressing parasites (Ishino et al. Cell. Mol. Microbiol. 2006, 59 (4), 1175-1184). Two hours post-infection, mice were treated i.p. with a daily regimen of 10mg/kg of compound 84, or 25mg/kg of chloroquine, or the equivalent vehicle control (distillated water) for four days. Parasitemia was quantified from blood samples collected every day by flow cytometry of 50,000 RBCs and confirmed by Giemsa-stained blood smears.

[4] abbreviates: Plasmodium falciparum, NF54, 72h, SYBR Green I, read-out: Malaria CI50.
[5] abbreviates: 72h, Cambodian isolate resistant to Chloroquine and Pyrimethamine, mean of three replicates.
Where [6] appears, read: 72h, Cambodian isolate resistant to Chloroquine, Pyrimethamine, Mefloquine and Artemisinin, mean of three replicates.
Where [7] appears, read: 72h, Cambodian isolate resistant to Chloroquine, Pyrimethamine, Piperaquine and Artemisinin, mean of three replicates.
Setting [8] is: 72h, Cambodian isolate resistant to Chloroquine, Pyrimethamine, mean of three replicates.
Where [9] appears, read: 3D7, 72h, laboratory strain, drug-sensitive, mean of three replicates.
Where [10] appears, read: Plasmodium falciparum, NF54, 72 h, SYBR Green I, read-out: Malaria CI50.

The text below walks through data of patent EP3907227A1, “TRILOBINE DERIVATIVES AND THEIR USE THEREOF IN THE TREATMENT OF MALARIA” (Institut Pasteur, priority 2020, dated 2021).

Read-outs that look alike come from different tables or passages of the source.

With `Clc1ccc2c(N3CCN(CCCN4CCN(c5ccnc6cc(Cl)ccc56)CC4)CC3)ccnc2c1` [Piperaquine], the IC50 in the test with Strain 5150 (72 h) was 26 nM; in the test on Strain 5248 (72 h) it was 33 nM; in the test on Strain 6320 (72 h), > 200 nM; with Strain 6591 (72 h), 34 nM; with Lab. Strain 3D7 (3D7, 72 h), 41 nM.

Consider `Oc1ccc2cc1Oc1ccc(cc1)CC1NCCc3cc(O)c4c(c31)Oc1cc3c(cc1O4)CCNC3C2` (centres unmarked) [Compound 121], for which the IC50 in test [1] (setting [4]) was 115 ± 55 nM. In the test with Parasites, the “Speed of action (parasite reduction rate)” value is reported as “act as fast as dihydroartemisinin (DHA)”.

Consider `CCc1nc(N)nc(N)c1-c1ccc(Cl)cc1` [Pyrimethamine], for which the IC50 was > 5000 nM with Strain 5150 (setting [5]); > 5000 nM in the test on Strain 5248 (setting [6]); > 5000 nM in the test on Strain 6320 (setting [7]); > 5000 nM in the test with Strain 6591 (setting [8]); 30 nM in the test on Lab. Strain 3D7 (setting [9]).

On to `CCN(CC)CCCC(C)Nc1ccnc2cc(Cl)ccc12` (centres unmarked) [Chloroquine], for which the IC50 in the test on Strain 5150 (72 h) was 55 nM; with Strain 5248 (72 h), 98 nM; in the test on Strain 6320 (72 h) it was 109 nM; in the test with Strain 6591 (72 h), 64 nM; with Lab. Strain 3D7 (3D7, 72 h), 13 nM.

Regarding `COc1cc2c3c4c1Oc1cc5c(cc1O4)C(Cc1ccc(OCCCN(C)C)c(c1)Oc1ccc(cc1)CC3N(C)CC2)N(C)CC5` (centres unmarked) [Compound 84], the IC50 in [1] (NF54, 72h, SYBR Green I, read-out: Malaria CI50) came to 137 nM; in [1] (setting [10]) it was 130 ± 35 nM; in the test with Strain 5150 (setting [5]), 251 nM; in the test on Strain 5248 (setting [6]) it was 346 nM; with Strain 6320 (setting [7]) it was 183 nM; with Strain 6591 (setting [8]) it was 167 nM. Moreover, the IC50 with Lab. Strain 3D7 (setting [9]) was determined as 136 nM. The activity at 5 µM in test [1] (Plasmodium falciparum) amounted to 14.9%. The “Stage-specificity (survival after 6h treatment windows across the 48h cycle)” value in the test with asexual NF54 parasites (synchronized NF54, 6h treatment, parasitemia at 72 hours post-synchronization, Figure 1) is “active throughout the 48h cycle with an increased efficiency between 12 and 42h post-invasion”. The “Concentration from which the compound is active (stage-specificity assay)” value in the test with asexual NF54 parasites (tested at one, two and three times the IC50 value) was “active starting from the concentration corresponding to 3 times the IC50 value”. Further, in test [2] (6h treatment with three times the IC50 value, Figure 2), the “Killing of resistant rings (RSA), compound alone” value is reported as “kills resistant rings using three times the IC50 value in a similar manner whichever the strain considered”. Moreover, the “Killing of parasites (RSA), in combination with DHA” value in [2] (6h treatment, three times the IC50 value plus 700nM DHA) was “able to kill the parasites of all the tested strains in combination with 700nM dihydroartemisinin (DHA)”. Further, in the test on Parasites, the “Speed of action (parasite reduction rate)” value is reported as “act as fast as dihydroartemisinin (DHA)”. Besides, the Severe malaria symptoms result in [3] is “do not develop severe malaria symptoms”. The Survival after inoculation in test [3] was determined as 16 days.

For the compound `CCN(CC)CCCNC(=O)N1CCc2cc(OC)c3c4c2C1Cc1ccc(cc1)Oc1cc(ccc1OC)CC1c2cc(c(cc2CCN1C)O3)O4` (centres unmarked) [Compound 89], the IC50 in [1] (setting [10]) came out at 428 ± 77 nM. For the same compound, in test [1] (Plasmodium falciparum), the activity at 5 µM was found to be 14.4%.

With `COc1cc2c3c4c1Oc1cc5c(cc1O4)C(Cc1ccc(OCCC4CCCN4C)c(c1)Oc1ccc(cc1)CC3N(C)CC2)N(C)CC5` (centres unmarked) [Compound 75], the IC50 in test [1] (setting [10]) was 352 ± 54 nM. Moreover, the activity at 5 µM in test [1] (Plasmodium falciparum) is 14.9%.

With `CN1CCc2cc3c4cc2C1Cc1ccc(O)c(c1)Oc1ccc(cc1)CC1c2c(cc(O)c(c2O4)O3)CCN1C` (centres unmarked) [Compound 110], in test [1] (setting [4]), the IC50 worked out at 146 ± 39 nM.

Regarding `COc1ccc2cc1Oc1ccc(cc1)CC1c3c(cc(OC)c4c3Oc3cc5c(cc3O4)CCN(C(=O)NCc3ccncc3)C5C2)CCN1C` (centres unmarked) [Compound 31], the IC50 in [1] (setting [10]) came to 151 ± 21 nM. In [1] (Plasmodium falciparum), the activity at 5 µM is 14.8%.

As to `COc1ccc2cc1Oc1ccc(cc1)C[C@H]1c3c(cc(OC)c4c3Oc3cc5c(cc3O4)CCN(C)[C@H]5C2)CCN1C` [Isotrilobine, reference compound], the IC50 in [1] (Plasmodium falciparum, NF54, 72 h, same conditions as Table 1 (NF54, 72h), read-out: mean IC50 +/- SD) stood at 1780 nM.

For `CN(C)Cc1cc2cc(c1O)Oc1ccc(cc1)CC1c3c(c(CN(C)C)c(O)c4c3Oc3cc5c(cc3O4)CCN(C)C5C2)CCN1C` (centres unmarked) [Compound 123], the IC50 in [1] (setting [10]) was 283 ± 155 nM.
